# Columns and labels:
# CDK4/Cyclin D3 = CDK4/Cyclin D3 (Homo sapiens, UniProt P11802); test: Inhibition of recombinant human full-length N-terminal GST-fused CDK4 (1 to 303 residues)/GST-tagged CyclinD3 (1 to 292 residues) expressed in baculovirus expression system using ULight-elF4E-binding protein 1 peptide as substrate measured after 30 mins by LANCE assay
# CDK6/Cyclin D3 = CDK6/Cyclin D3 (Homo sapiens, UniProt Q00534); test: Inhibition of human full-length N-terminal GST tagged CDK6 (1 to 326 residues)/GST-tagged cyclinD3 (1 to 292 residues) expressed in baculovirus expression system using ULight-elF4E-binding protein 1 peptide as substrate measured after 30 mins by LANCE assay
# COLO 205 [1] = test: Antiproliferative activity against human COLO 205 cells assessed as cell growth inhibition measured after 4 to 6 days by celltiter-glo luminescent cell viability assay; type: functional, cell-based
# U-87 MG [2] = test: Antiproliferative activity against human U-87 MG cells assessed as cell growth inhibition measured after 4 to 6 days by celltiter-glo luminescent cell viability assay; type: functional, cell-based, U-87MG ATCC
# COLO 205 [3] = test: Cell cycle arrest in human COLO 205 cells assessed as accumulation at G0/G1 phase at 200 nM measured after 24 hrs by propidium iodide staining based flow cytometry relative to control; type: functional
# MDA-MB-468 = test: Antiproliferative activity against human MDA-MB-468 cells assessed as cell growth inhibition measured after 4 to 6 days by celltiter-glo luminescent cell viability assay; type: functional, cell-based
# [4] = Intrinsic clearance in human liver microsomes at 1 uM preincubated for 10 mins followed by NADPH addition and measured after 1 hr by LC-MS/MS analysis; type: ADME, Microsome; details: time 70 min, read-out: CLH
# [5] = Intrinsic clearance in rat liver microsomes at 1 uM preincubated for 10 mins followed by NADPH addition and measured after 1 hr by LC-MS/MS analysis; type: ADME, Microsome; details: time 70 min, read-out: CLH
# CYP1A2 = target: T1, CYP1A2 (Homo sapiens, UniProt P05177); test: Inhibition of CYP1A2 in human liver microsomes at 10 uM measured after 20 mins in presence of NADPH by LC-MS/MS analysis relative to control; type: ADME
# T1 sequence (P05177 whole entry): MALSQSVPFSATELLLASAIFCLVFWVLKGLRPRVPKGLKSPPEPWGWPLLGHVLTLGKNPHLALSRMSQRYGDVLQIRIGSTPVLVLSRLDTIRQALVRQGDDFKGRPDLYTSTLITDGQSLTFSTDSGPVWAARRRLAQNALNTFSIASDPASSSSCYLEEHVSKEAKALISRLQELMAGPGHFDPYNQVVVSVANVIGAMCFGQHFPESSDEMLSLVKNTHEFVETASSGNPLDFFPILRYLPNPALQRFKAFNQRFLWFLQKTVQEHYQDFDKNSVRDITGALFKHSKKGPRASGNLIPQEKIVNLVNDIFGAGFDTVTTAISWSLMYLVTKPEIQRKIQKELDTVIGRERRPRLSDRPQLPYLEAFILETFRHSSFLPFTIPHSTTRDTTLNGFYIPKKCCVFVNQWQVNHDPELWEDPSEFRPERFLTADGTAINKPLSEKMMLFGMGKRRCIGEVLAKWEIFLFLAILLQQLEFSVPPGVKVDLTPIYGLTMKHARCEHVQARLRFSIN
# CYP2C9 = CYP2C9 (Homo sapiens, UniProt P11712); test: Inhibition of CYP2C9 in human liver microsomes at 10 uM measured after 20 mins in presence of NADPH by LC-MS/MS analysis relative to control; type: ADME
# CYP2C19 = CYP2C19 (Homo sapiens, UniProt P33261); test: Inhibition of CYP2C19 in human liver microsomes at 10 uM measured after 20 mins in presence of NADPH by LC-MS/MS analysis relative to control; type: ADME
# CYP2D6 = CYP2D6 (Homo sapiens, UniProt P10635); test: Inhibition of CYP2D6 in human liver microsomes at 10 uM measured after 20 mins in presence of NADPH by LC-MS/MS analysis relative to control; type: ADME
# CYP3A4 = CYP3A4 (Homo sapiens, UniProt P08684); test: Inhibition of CYP3A4 in human liver microsomes at 10 uM measured after 20 mins in presence of NADPH by LC-MS/MS analysis relative to control; type: ADME
# Cytochrome P450 1A2 = target: T2, Cytochrome P450 1A2 (Homo sapiens, UniProt P05177); test: Time-dependent inhibition of CYP1A2 in human liver microsomes at 10 uM in presence of NADPH by LC-MS/MS analysis; type: ADME
# T2 sequence (P05177 whole entry): T1 sequence (P05177 whole entry)
# Cytochrome P450 2C9 = Cytochrome P450 2C9 (Homo sapiens, UniProt P11712); test: Time-dependent inhibition of CYP2C9 in human liver microsomes at 10 uM in presence of NADPH by LC-MS/MS analysis; type: ADME
# Cytochrome P450 2C19 = Cytochrome P450 2C19 (Homo sapiens, UniProt P33261); test: Time-dependent inhibition of CYP2C19 in human liver microsomes at 10 uM in presence of NADPH by LC-MS/MS analysis; type: ADME
# Cytochrome P450 2D6 = Cytochrome P450 2D6 (Homo sapiens, UniProt P10635); test: Time-dependent inhibition of CYP2D6 in human liver microsomes at 10 uM in presence of NADPH by LC-MS/MS analysis; type: ADME
# Cytochrome P450 3A4 = Cytochrome P450 3A4 (Homo sapiens, UniProt P08684); test: Time-dependent inhibition of CYP3A4 in human liver microsomes at 10 uM in presence of NADPH by LC-MS/MS analysis; type: ADME
# [6] = AUC (0 to t) in BALB/c mouse at 3 mg/kg, iv by LC-MS/MS analysis; type: ADME, organism-based; parameters: dose 3 mg/kg; details: in vivo
# [7] = Half life in BALB/c mouse at 3 mg/kg, iv by LC-MS/MS analysis; type: ADME, organism-based; details: in vivo
# [8] = Volume of distribution at steady state in BALB/c mouse at 3 mg/kg, iv by LC-MS/MS analysis; type: ADME, organism-based; details: in vivo, read-out: Vdss
# [9] = Cmax in BALB/c mouse at 10 mg/kg, po by LC-MS/MS analysis; type: ADME, organism-based; parameters: route oral, dose 10 mg/kg; details: in vivo
# [10] = AUC (0 to t) in BALB/c mouse at 10 mg/kg, po by LC-MS/MS analysis; type: ADME, organism-based; parameters: dose 10 mg/kg; details: in vivo
# [11] = Half life in BALB/c mouse at 10 mg/kg, po by LC-MS/MS analysis; type: ADME, organism-based; details: in vivo
# [12] = Oral bioavailability in BALB/c mouse at 10 mg/kg by LC-MS/MS analysis; type: ADME, organism-based; details: in vivo
# [13] = AUC (0 to t) in Sprague-Dawley rat at 3 mg/kg, iv by LC-MS/MS analysis; type: ADME, organism-based; parameters: dose 3 mg/kg; details: in vivo
# [14] = Half life in Sprague-Dawley rat at 3 mg/kg, iv by LC-MS/MS analysis; type: ADME, organism-based; details: in vivo
# [15] = Volume of distribution at steady state in Sprague-Dawley rat at 3 mg/kg, iv by LC-MS/MS analysis; type: ADME, organism-based; details: in vivo, read-out: Vdss
# [16] = Cmax in Sprague-Dawley rat at 6 mg/kg, po by LC-MS/MS analysis; type: ADME, organism-based; parameters: route oral, dose 6 mg/kg; details: in vivo
# [17] = AUC (0 to t) in Sprague-Dawley rat at 6 mg/kg, po by LC-MS/MS analysis; type: ADME, organism-based; parameters: dose 6 mg/kg; details: in vivo
# [18] = Half life in Sprague-Dawley rat at 6 mg/kg, po by LC-MS/MS analysis; type: ADME, organism-based; details: in vivo
# [19] = Oral bioavailability in Sprague-Dawley rat at 6 mg/kg by LC-MS/MS analysis; type: ADME, organism-based; details: in vivo
# U-87 MG [20] = test: Antitumor activity against human U-87 MG cells xenografted in BALB/c mouse assessed as tumor growth inhibition at 10 mg/kg, po qd for 16 days relative to control; type: functional, U-87MG ATCC; details: 384 h, time 16 day, read-out: TGI
# U-87 MG [21] = test: Antitumor activity against human U-87 MG cells xenografted in BALB/c mouse assessed as tumor growth at 10 mg/kg, po qd for 16 days relative to control; type: functional, U-87MG ATCC; details: time 16 day
# [22] = Toxicity in human U-87 MG cells xenografted BALB/c mouse assessed as body weight loss at 10 mg/kg, po qd for 16 days relative to control; type: organism-based; details: in vivo, 384 h, time 16 day
# [23] = target: Cyclin-dependent kinase 7/ cyclin H (Homo sapiens, UniProt P50613); test: Inhibition of CDK7/cyclin H (unknown origin); type: protein-complex assay
# CDK9/cyclin T1 = CDK9/cyclin T1 (Homo sapiens, UniProt P50750)
# Description: Inhibition of CDK9/cyclin T1 (unknown origin)
# [24] = target: Cyclin-dependent kinase 1/cyclin B1 (Homo sapiens, UniProt P06493)
# Description: Inhibition of CDK1/cyclin B (unknown origin)
# CDK2/Cyclin A2 = CDK2/Cyclin A2 (Homo sapiens, UniProt P24941)
# Description: Inhibition of CDK2/cyclin A2 (unknown origin)
# Chain of CDK4/Cyclin D3 (P11802 whole entry, the tested form may be a part): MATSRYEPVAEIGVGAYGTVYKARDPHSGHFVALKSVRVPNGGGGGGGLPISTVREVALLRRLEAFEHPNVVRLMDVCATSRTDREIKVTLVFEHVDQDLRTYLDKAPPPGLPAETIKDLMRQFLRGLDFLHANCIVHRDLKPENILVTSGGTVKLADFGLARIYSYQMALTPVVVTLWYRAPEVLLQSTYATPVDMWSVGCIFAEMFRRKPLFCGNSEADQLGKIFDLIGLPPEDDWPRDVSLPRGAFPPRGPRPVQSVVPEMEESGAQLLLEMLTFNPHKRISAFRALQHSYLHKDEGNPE
# Chain of CDK4/Cyclin D3 (P30281 whole entry, further chain, the tested form may be a part): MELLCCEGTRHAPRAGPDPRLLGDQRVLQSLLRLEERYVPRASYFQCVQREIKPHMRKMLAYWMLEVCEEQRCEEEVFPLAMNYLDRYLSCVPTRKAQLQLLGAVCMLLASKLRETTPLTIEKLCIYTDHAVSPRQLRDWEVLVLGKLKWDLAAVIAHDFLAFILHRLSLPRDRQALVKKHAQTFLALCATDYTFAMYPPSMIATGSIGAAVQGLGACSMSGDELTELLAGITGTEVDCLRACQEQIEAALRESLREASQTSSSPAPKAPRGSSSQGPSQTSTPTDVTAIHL
# Chain of CDK6/Cyclin D3 (Q00534 whole entry, looked up, the tested form may be a part): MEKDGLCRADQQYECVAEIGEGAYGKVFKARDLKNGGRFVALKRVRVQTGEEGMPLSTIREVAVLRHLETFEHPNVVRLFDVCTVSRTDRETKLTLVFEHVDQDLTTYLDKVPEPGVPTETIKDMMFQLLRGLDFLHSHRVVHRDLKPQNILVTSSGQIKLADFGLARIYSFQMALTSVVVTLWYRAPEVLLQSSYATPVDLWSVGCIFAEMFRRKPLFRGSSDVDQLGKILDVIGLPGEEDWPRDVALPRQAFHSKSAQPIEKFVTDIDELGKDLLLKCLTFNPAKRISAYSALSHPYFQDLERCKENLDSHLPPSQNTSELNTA
# Chain of Cyclin-dependent kinase 1/cyclin B1 (P06493 whole entry): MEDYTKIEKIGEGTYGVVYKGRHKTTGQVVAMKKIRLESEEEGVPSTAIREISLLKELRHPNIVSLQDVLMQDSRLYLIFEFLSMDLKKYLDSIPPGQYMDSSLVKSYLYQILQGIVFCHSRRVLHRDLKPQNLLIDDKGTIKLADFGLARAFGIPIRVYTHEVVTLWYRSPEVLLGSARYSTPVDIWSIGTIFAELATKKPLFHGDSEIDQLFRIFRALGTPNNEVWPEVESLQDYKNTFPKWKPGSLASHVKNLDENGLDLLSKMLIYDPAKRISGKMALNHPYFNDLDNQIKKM
# Chain of Cyclin-dependent kinase 1/cyclin B1 (P14635 whole entry, further chain): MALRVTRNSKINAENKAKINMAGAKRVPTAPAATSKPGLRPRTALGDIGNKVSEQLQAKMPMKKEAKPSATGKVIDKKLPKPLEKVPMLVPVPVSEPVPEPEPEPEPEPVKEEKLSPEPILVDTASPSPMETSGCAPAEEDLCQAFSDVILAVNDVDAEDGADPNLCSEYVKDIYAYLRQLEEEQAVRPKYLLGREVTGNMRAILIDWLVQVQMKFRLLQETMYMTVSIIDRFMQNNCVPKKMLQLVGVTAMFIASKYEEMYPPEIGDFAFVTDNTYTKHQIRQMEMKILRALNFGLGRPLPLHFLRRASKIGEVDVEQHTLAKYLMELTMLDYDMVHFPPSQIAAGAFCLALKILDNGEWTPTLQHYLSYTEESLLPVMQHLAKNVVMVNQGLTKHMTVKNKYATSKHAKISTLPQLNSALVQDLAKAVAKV
# Chain of CYP2D6 (P10635 whole entry): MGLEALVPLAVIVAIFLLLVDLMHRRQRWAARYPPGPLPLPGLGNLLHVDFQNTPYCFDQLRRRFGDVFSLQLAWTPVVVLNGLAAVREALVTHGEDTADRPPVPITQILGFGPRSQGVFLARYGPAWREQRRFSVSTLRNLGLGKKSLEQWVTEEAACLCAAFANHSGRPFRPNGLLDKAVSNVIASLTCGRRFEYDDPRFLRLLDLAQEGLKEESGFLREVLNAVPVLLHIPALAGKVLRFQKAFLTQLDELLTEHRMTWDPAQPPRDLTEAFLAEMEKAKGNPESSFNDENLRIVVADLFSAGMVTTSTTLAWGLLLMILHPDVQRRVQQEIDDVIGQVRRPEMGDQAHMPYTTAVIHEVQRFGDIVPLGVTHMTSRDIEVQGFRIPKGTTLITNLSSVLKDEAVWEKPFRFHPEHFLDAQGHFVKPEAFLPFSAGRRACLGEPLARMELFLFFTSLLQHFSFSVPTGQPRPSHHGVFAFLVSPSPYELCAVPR
# Chain of Cytochrome P450 2D6 (P10635 whole entry): as above
# Chain of CYP3A4 (P08684 whole entry): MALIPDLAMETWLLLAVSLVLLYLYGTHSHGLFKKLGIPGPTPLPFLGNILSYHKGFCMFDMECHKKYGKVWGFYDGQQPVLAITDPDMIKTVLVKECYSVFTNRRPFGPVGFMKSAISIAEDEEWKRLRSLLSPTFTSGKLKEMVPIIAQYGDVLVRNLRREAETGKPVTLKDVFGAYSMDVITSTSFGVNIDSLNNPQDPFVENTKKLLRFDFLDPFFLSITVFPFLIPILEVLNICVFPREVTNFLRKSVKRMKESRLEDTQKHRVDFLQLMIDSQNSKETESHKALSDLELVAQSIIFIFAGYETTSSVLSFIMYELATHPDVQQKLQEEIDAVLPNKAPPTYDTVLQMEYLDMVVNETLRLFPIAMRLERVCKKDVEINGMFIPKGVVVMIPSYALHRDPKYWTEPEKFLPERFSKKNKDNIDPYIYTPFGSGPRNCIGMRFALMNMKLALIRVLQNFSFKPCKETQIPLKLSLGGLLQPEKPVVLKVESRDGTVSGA
# Chain of Cytochrome P450 3A4 (P08684 whole entry): as above
# Chain of CYP2C19 (P33261 whole entry): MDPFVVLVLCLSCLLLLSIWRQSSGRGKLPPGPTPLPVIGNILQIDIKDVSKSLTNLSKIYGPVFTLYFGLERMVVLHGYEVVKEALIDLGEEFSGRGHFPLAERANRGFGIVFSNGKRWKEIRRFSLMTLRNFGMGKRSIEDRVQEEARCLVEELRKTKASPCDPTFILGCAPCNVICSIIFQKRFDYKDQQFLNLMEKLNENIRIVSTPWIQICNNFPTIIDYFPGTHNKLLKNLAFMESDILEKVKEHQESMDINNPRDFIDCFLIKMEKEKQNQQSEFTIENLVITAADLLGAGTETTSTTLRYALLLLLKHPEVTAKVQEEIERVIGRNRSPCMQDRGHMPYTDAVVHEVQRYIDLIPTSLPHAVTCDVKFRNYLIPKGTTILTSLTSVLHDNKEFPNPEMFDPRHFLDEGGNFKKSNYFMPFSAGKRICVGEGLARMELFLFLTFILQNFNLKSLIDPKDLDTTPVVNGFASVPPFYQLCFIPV
# Chain of Cytochrome P450 2C19 (P33261 whole entry): as above
# Chain of Cytochrome P450 2C9 (P11712 whole entry): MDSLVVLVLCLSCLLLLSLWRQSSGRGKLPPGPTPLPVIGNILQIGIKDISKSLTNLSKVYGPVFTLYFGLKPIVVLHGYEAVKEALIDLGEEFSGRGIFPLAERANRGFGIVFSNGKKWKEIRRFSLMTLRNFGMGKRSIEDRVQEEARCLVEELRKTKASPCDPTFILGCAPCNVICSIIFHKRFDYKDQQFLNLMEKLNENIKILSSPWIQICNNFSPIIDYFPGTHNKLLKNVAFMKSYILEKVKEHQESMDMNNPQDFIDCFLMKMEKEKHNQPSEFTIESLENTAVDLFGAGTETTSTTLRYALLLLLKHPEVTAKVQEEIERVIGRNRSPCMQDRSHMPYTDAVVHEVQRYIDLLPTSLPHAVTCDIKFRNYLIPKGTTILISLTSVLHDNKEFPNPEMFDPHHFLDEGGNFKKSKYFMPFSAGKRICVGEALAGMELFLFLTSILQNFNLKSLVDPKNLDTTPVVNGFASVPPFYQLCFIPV
# Chain of CYP2C9 (P11712 whole entry): as above
smiles,measurement,setting,value
CC(=O)c1c(C)c2cnc(Nc3ccc(N4CCNCC4)cc3)nc2n2cc(C3CCCCC3)nc12,IC50,CDK4/Cyclin D3,18.9 nM
same,IC50,CDK6/Cyclin D3,22.2 nM
same,IC50,COLO 205 [1],121 nM
same,IC50,U-87 MG [2],122 nM
Cc1cn2c(n1)c(C#N)c(C)c1cnc(N)nc12,IC50,CDK4/Cyclin D3,592 nM
same,IC50,CDK6/Cyclin D3,3090 nM
CC(=O)c1c(C)c2cnc(Nc3ccc4c(n3)CCNC4)nc2n2cc(C(C)C)nc12,IC50,CDK4/Cyclin D3,9.9 nM
same,IC50,CDK6/Cyclin D3,23.1 nM
same,IC50,COLO 205 [1],5740 nM
same,IC50,U-87 MG [2],3720 nM
Cc1cn2c(n1)c(C#N)c(C)c1cnc(Nc3ccccc3)nc12,IC50,CDK4/Cyclin D3,98.9 nM
same,IC50,CDK6/Cyclin D3,112 nM
CC(=O)c1c(C)c2cnc(Nc3ccc(N4CCNCC4)cc3)nc2n2cc(-c3ccccc3)nc12,IC50,CDK4/Cyclin D3,13.5 nM
same,IC50,CDK6/Cyclin D3,32.8 nM
same,IC50,COLO 205 [1],474 nM
same,IC50,U-87 MG [2],412 nM
CCOC(=O)c1cn2c(n1)c(C(C)=O)c(C)c1cnc(Nc3ccc(N4CCNCC4)cc3)nc12,IC50,CDK4/Cyclin D3,22.3 nM
same,IC50,CDK6/Cyclin D3,86.6 nM
same,IC50,COLO 205 [1],2840 nM
same,IC50,U-87 MG [2],> 10000 nM
CC(=O)c1c(C)c2cnc(Nc3ccc(N4CCNCC4)cc3)nc2n2cc(C(C)(C)C)nc12,Activity,COLO 205 [3],95.4%
same,IC50,CDK4/Cyclin D3,2.7 nM
same,IC50,CDK6/Cyclin D3,4.8 nM
same,IC50,COLO 205 [1],256 nM
same,IC50,U-87 MG [2],49.3 nM
same,IC50,MDA-MB-468,984 nM
same,microsomal CLint at 1 µM,[4],6 µL/min/mg
same,microsomal CLint at 1 µM,[5],6 µL/min/mg
same,"inhibition at […], 10 µM",CYP1A2,17%
same,"inhibition at […], 10 µM",CYP2C9,12%
same,"inhibition at […], 10 µM",CYP2C19,19%
same,"inhibition at […], 10 µM",CYP2D6,7%
same,"inhibition at […], 10 µM",CYP3A4,18%
same,TDI,Cytochrome P450 1A2,Active
same,TDI,Cytochrome P450 2C9,Not Active
same,TDI,Cytochrome P450 2C19,Not Active
same,TDI,Cytochrome P450 2D6,Not Active
same,TDI,Cytochrome P450 3A4,Not Active
same,AUCt,[6],440 ng·h/mL
same,half-life,[7],278 min
same,Vd,[8],33.7 L/kg
same,Cmax,[9],570 ng/mL
same,AUC(0-t),[10],775 ng·h/mL
same,half-life,[11],221 min
same,bioavailability,[12],53.1%
same,AUCt,[13],1334 ng·h/mL
same,half-life,[14],334 min
same,Vd,[15],35.7 L/kg
same,Cmax,[16],170 ng/mL
same,AUC(0-t),[17],1780 ng·h/mL
same,half-life,[18],266 min
same,bioavailability,[19],66.9%
same,inhibition in vivo at 10 mg/kg,U-87 MG [20],70%
same,T/C,U-87 MG [21],37%
same,Activity,[22],< 20%
same,IC50,[23],204 nM
same,IC50,CDK9/cyclin T1,221 nM
same,IC50,[24],2080 nM
same,IC50,CDK2/Cyclin A2,60.3 nM
CC(=O)c1c(C)c2cnc(Nc3ccc(N4CCNCC4)cc3)nc2n2cc(C3CCCC3)nc12,IC50,CDK4/Cyclin D3,4.7 nM
same,IC50,CDK6/Cyclin D3,5.9 nM
same,IC50,COLO 205 [1],73.4 nM
same,IC50,U-87 MG [2],64.8 nM
CC(=O)c1c(C)c2cnc(Nc3ccc(N4CCNCC4)cc3)nc2n2cc(C(=O)N3CCCC3)nc12,IC50,CDK4/Cyclin D3,59 nM
same,IC50,CDK6/Cyclin D3,150 nM
same,IC50,U-87 MG [2],> 10000 nM
CC(=O)c1c(C)c2cnc(Nc3ccc(N4CCC(N(C)C)C4)cn3)nc2n2cc(C(C)C)nc12 (stereo unspecified),IC50,CDK4/Cyclin D3,4.5 nM
same,IC50,CDK6/Cyclin D3,4.3 nM
same,IC50,COLO 205 [1],1420 nM
same,IC50,U-87 MG [2],536 nM
CCN1CCN(Cc2ccc(Nc3ncc(F)c(-c4cc(F)c5nc(C)n(C(C)C)c5c4)n3)nc2)CC1 [ABEMACICLIB],Activity,COLO 205 [3],95.3%
same,IC50,MDA-MB-468,1140 nM
CC(=O)c1c(C)c2cnc(Nc3ccc(N4CCNCC4)cc3)nc2n2cc(C)nc12,IC50,CDK4/Cyclin D3,3.6 nM
same,IC50,CDK6/Cyclin D3,10.2 nM
same,IC50,COLO 205 [1],583 nM
same,IC50,U-87 MG [2],1260 nM

# — ChEMBL document CHEMBL4765279, “Discovery of a novel series of imidazo[1',2':1,6]pyrido[2,3-d]pyrimidin derivatives as potent cyclin-dependent kinase 4/6 inhibitors” (Eur J Med Chem, 2020)
